Assay [1] concerns the target T1, Phospho-EGFR (Tyr1068) in A431 cells (Homo sapiens, UniProt P00533).
T1 construct: endogenous in cells; host or cells: A431
Description: HTRF pEGFR/total EGFR in A431 cells with EGF stimulation. Type of assay: cell-based. The following applies: ratio pEGFR/total EGFR, compound 2.5 hours then 100 ng/ml EGF 30 mins. The method, then:
Cells were plated at 20,000 cells per well in 96 well plates and placed at 37° C. 5% CO2. Once adhered (after 24 h) cells were treated with compounds dissolved in DMSO at a final concentration of 0.1% DMSO in media. Compounds were diluted in media then added to cells for 2.5 hours in duplicate, 100 ng/ml EGF (ThermoFisher, PHG0311) was added to all compound treated cells as well as a control for 30 mins. Compound and media were removed from the cells, then 50 ul of HTRF lysis buffer was added (lysis buffer was diluted from 4× stock to 1× in DI water, with 1% blocking agent also added). Cells were lysed on a plate shaker (2000 rpm) for 30 minutes at room temperature. pEGFR expression was monitored using the Cisbio Phospho-EGFR (Tyr1068) cellular kit (64EG1PEH). Total EGFR expression was monitored using the Cisbio Total EGFR cellular kit (64NG1PEH) as per manufacturer's instructions. Fluorescence emission was read at two different wavelengths (665 nm and 620 nm) on a PheraStar. Results were calculated as ratio of pEGFR/total EGFR and then percentage of 0 μM control.
(In TR-FRET formats the signal depends on donor and acceptor labels being close together.)

Assay [2] deals with CtermHisTag-mEGFR Wild type (Homo sapiens, UniProt P00533). Briefly: biochemical.
Assay [3] has as its target T2, Phospho-EGFR (Tyr1068) in H1975 cells (Homo sapiens, UniProt P00533, L858R/T790M).
T2 construct: host or cells: H1975
Briefly: HTRF pEGFR/total EGFR in H1975 cells. Type of assay: cell-based. As to conditions: ratio pEGFR/total EGFR, compound 3 hours. The method, then: (§1) H1975 cells (ATCC CRL-5908) were plated at 20,000 cells per well in 96 well plates and placed at 37° C. 5% CO2. Once adhered (after 24 h) cells were treated with compounds dissolved in DMSO at a final concentration of 0.1% DMSO in media. Compounds were diluted in media then added to cells for 3 hours in duplicate. Compound and media were removed from the cells, then 50 ul of HTRF lysis buffer is added (lysis buffer was diluted from 4× stock to 1× in DI water, with 1% blocking agent also added). Cells were lysed on a plate shaker (2000 rpm) for 30 minutes at room temperature. pEGFR expression was monitored using the Cisbio Phospho-EGFR (Tyri068) cellular kit (64EG1PEH). Total EGFR expression was monitored using the Cisbio Total EGFR cellular kit (64NG1PEH) as per manufacturer's instructions. Fluorescence emission was read at two different wavelengths (665 nm and 620 nm) on a PheraStar. Results were calculated as ratio of pEGFR/total EGFR and then percentage of 0 μM control.

Assay [4] concerns the target T3, Phospho-EGFR (Tyr1068) in H1975 C797S cells (CRISPR-edited EGFR C797S) (Homo sapiens, UniProt P00533, C797S/L858R/T790M).
T3 construct: host or cells: H1975 C797S (CRISPR-edited)
Description: HTRF pEGFR/total EGFR in H1975 C797S cells. Type of assay: cell-based. The following applies: ratio pEGFR/total EGFR, compound 3 hours. As to the method:
as §1, with “[…]. Once” for “H1975 cells (ATCC CRL-5908) were plated at 20,000 cells per well in 96 well plates and placed at 37° C. 5% CO2. Once”, “buffer was” for “buffer is”, “Phospho-EGFR (Tyr1068)” for “Phospho-EGFR (Tyri068)”

Where only a bound is given, the exact number is not on record here.

T2 sequence (P00533 25-1210 T790M/L858R): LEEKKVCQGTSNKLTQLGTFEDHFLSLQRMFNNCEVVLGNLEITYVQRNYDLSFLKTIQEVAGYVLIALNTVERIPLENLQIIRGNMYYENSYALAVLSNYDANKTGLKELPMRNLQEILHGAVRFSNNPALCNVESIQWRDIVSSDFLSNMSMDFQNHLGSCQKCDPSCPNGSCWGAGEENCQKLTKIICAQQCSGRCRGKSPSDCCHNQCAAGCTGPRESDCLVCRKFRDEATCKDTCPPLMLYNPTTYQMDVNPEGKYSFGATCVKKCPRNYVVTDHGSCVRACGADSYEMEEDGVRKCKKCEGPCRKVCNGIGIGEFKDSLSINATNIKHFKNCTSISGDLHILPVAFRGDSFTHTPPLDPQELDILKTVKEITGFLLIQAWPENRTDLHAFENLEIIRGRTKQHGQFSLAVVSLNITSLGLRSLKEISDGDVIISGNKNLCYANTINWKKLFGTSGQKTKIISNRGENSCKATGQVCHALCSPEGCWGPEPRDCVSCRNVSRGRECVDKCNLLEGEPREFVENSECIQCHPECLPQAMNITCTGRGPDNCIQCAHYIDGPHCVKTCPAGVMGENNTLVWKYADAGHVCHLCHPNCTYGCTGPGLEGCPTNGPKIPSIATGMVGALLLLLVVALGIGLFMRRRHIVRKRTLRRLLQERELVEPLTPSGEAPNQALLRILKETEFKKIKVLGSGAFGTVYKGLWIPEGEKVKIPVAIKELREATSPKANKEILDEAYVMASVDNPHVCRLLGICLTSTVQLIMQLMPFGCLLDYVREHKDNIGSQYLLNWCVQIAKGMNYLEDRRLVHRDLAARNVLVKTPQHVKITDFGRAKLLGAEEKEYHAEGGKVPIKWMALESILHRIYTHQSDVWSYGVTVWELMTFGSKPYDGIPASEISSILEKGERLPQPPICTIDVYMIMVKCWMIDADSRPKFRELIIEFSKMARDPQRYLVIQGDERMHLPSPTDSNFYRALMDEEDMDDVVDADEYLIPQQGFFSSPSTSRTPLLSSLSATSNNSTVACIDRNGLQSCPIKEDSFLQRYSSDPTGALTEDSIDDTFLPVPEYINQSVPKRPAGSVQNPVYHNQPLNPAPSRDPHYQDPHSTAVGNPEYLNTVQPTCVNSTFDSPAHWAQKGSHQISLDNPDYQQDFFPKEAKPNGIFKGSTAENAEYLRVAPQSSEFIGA
T1 sequence (P00533 25-1210): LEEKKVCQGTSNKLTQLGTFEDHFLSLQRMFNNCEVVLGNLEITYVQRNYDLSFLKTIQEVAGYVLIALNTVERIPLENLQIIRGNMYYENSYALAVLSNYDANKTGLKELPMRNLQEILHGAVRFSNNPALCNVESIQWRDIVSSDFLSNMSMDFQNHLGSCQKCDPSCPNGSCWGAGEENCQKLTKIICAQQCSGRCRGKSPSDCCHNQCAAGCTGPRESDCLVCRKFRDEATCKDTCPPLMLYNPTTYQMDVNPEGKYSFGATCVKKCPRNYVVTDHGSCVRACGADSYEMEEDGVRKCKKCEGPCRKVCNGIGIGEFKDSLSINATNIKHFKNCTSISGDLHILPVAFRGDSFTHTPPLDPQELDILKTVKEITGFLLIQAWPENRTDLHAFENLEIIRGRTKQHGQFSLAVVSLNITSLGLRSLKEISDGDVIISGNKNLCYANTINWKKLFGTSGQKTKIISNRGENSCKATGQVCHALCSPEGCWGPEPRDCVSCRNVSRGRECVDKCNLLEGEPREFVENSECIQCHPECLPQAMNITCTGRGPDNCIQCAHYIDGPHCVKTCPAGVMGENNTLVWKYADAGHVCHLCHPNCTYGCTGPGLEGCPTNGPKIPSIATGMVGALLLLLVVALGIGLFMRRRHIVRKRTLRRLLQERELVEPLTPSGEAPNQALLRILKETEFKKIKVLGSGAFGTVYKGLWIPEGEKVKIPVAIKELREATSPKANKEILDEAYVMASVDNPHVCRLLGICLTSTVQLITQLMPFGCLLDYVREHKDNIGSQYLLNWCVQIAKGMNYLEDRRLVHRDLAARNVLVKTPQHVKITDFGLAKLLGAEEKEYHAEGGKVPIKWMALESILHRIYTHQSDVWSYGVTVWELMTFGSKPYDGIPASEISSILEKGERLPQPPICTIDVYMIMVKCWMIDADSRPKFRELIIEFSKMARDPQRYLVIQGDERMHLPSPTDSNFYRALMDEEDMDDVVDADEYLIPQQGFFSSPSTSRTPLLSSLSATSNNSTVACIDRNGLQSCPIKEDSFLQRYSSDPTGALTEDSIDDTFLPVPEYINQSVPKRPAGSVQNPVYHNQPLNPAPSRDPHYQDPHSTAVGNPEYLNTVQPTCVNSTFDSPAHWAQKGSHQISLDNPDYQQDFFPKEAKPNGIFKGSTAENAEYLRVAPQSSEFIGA
CtermHisTag-mEGFR Wild type, sequence (P00533 whole entry): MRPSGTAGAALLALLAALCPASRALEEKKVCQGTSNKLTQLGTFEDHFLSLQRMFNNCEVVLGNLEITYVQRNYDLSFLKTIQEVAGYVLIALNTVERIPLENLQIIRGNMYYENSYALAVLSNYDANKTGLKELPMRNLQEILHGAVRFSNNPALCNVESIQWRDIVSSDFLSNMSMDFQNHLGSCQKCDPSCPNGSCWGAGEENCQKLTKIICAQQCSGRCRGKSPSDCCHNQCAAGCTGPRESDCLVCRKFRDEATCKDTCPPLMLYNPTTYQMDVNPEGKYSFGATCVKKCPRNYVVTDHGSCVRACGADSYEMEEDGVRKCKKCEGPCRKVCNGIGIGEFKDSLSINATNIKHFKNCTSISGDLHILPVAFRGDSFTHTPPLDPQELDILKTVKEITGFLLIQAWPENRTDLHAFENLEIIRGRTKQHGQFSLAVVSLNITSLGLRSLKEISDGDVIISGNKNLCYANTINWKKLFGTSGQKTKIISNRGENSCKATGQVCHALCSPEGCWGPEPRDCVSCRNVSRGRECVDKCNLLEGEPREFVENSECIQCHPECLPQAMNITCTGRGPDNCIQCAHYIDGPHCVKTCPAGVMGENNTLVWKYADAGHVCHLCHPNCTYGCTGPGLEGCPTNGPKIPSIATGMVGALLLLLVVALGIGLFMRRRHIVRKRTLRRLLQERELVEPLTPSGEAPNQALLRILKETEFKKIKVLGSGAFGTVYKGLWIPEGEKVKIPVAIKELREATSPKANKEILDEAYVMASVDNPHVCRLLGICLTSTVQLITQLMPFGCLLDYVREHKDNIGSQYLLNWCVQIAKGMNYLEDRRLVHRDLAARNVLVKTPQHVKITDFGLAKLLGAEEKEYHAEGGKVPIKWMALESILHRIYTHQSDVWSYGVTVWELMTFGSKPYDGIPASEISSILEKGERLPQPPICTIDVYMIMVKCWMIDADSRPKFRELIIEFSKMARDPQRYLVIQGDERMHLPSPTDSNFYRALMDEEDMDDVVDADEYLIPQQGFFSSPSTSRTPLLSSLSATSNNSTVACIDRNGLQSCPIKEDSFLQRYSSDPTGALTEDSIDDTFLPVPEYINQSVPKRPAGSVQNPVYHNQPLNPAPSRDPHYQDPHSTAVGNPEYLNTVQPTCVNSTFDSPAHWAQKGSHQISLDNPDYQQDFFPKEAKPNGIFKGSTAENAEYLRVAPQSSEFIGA
T3 sequence (P00533 25-1210 T790M/C797S/L858R): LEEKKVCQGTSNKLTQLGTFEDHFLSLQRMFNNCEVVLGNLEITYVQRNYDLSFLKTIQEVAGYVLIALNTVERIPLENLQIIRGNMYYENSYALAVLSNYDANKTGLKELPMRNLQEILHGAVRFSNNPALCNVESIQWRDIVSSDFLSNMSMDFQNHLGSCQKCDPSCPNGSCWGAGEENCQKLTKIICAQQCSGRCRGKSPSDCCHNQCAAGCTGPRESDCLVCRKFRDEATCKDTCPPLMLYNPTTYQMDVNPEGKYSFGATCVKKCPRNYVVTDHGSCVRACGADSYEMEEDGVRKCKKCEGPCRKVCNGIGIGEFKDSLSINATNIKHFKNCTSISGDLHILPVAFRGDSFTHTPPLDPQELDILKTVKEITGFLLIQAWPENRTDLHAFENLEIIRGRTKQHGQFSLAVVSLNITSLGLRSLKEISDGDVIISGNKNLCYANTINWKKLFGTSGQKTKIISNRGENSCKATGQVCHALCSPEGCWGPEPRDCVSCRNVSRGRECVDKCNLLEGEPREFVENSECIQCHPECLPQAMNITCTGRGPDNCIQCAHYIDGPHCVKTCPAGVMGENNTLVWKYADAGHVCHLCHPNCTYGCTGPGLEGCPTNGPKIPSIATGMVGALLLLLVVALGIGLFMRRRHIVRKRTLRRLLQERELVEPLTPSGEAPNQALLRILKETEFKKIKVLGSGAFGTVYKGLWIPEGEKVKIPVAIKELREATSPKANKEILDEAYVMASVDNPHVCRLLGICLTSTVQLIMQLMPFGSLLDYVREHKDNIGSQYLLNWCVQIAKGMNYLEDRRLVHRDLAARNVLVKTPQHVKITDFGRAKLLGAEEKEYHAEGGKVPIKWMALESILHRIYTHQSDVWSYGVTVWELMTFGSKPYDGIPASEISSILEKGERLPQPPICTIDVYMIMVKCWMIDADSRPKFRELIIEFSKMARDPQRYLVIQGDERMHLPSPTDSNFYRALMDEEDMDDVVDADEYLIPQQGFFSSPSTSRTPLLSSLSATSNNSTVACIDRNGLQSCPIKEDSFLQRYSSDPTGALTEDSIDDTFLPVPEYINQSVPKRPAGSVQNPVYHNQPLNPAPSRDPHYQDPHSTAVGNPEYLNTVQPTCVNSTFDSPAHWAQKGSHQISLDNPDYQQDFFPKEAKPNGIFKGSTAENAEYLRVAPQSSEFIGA

`C#Cc1cc(=O)n2c3nc(ncc13)Nc1ccc(N3CCN(C)CC3)c(c1)CC(=O)NCC2` [Example 197, 1^5-Ethynyl-3^4-(4-methylpiperazin-1-yl)-1^7,1^8-dihydro-2,6-diaza-1(2,8)-pyrido[2,3-d]pyrimidina-3(1,3)-benzenacyclooctaphane-1^7,5-dione]: the IC50 was over 3 µM in assay [1], over 10 µM in assay [2], 1 to 3 µM in assay [3] and 1 to 3 µM in assay [4].
On to `C#Cc1cc(=O)n([C@H]2CC[C@@H](NC(=O)CCC(=O)N(C)C)CC2)c2nc(Nc3ccc(N4CCN(C)CC4)cc3)ncc12` [Example 93, N,N-Dimethyl-N′-[(1s,4s)-4-(5-ethynyl-2-{[4-(4-methylpiperazin-1-yl)phenyl]amino}-7-oxopyrido[2,3-d]pyrimidin-8-yl)cyclohexyl]succinamide], for which the IC50 in assay [1] is over 3 µM; in assay [2], 1 to 10 µM; in assay [3] it was 0.5 to 1 µM; in assay [4], 1 to 3 µM.
Regarding `C#Cc1cc(=O)n2c3nc(ncc13)Nc1cccc(c1)OCCCC2` [Example 193, 1^5-Ethynyl-1^7,1^8-dihydro-4-oxa-2-aza-1(2,8)-pyrido[2,3-d]pyrimidina-3(1,3)-benzenacyclooctaphan-1^7-one], the IC50 was over 3 µM in assay [1], over 10 µM in assay [2], under 0.5 µM in assay [3] and 0.5 to 1 µM in assay [4].
The matching figures for `C#Cc1cc(=O)n(-c2ccc(OC)cc2OC)c2nc(Nc3ccc(N(C)CCN(C)C)cc3)ncc12` [Example 86, 8-(2,4-Dimethoxyphenyl)-2-[(4-{[2-(dimethylamino)ethyl](methyl)amino}phenyl)amino]-5-ethynylpyrido[2,3-d]pyrimidin-7-one]: 1 to 3 µM, under 1 µM, under 0.5 µM and 0.5 to 1 µM.
As to `C#Cc1cc(=O)n([C@H]2CC[C@@H](CO)CC2)c2nc(Nc3ccc(N(C)CCN(C)C)cc3)ncc12` [Example 80, 2-[(4-{[2-(Dimethylamino)ethyl](methyl)amino}phenyl)amino]-5-ethynyl-8-[(1s,4s)-4-(hydroxymethyl)cyclohexyl]pyrido[2,3-d]pyrimidin-7-one], the IC50 in assay [1] is 1 to 3 µM; in assay [2], under 1 µM; in assay [3], under 0.5 µM; in assay [4], 0.5 to 1 µM.
The matching figures for `C#Cc1cc(=O)n(CC2CCCC2)c2nc(Nc3ccc(N4CCN(C)CC4)cc3)ncc12` [Example 67, 8-(Cyclopentylmethyl)-5-ethynyl-2-((4-(4-methylpiperazin-1-yl)phenyl)amino)pyrido[2,3-d]pyrimidin-7(8H)-one]: 1 to 3 µM, under 1 µM, under 0.5 µM and under 0.5 µM.
`C#Cc1cc(=O)n(C)c2nc(Nc3ccc(N4CCN(C)CC4)c(S(=O)(=O)NCC4CCCC4)c3)ncc12` [Example 218]: the IC50 is over 3 µM in assay [1], under 1 µM in assay [2], 1 to 3 µM in assay [3] and over 3 µM in assay [4].
In the case of `C#Cc1cc(=O)n(CC2CCCO2)c2nc(Nc3ccc(N4CCN(C)CC4)cc3)ncc12` (stereo not drawn) [Example 72, 5-Ethynyl-2-((4-(4-methylpiperazin-1-yl)phenyl)amino)-8-((tetrahydrofuran-2-yl)methyl)pyrido[2,3-d]pyrimidin-7(8H)-one], the IC50 in assay [1] was over 3 µM; in assay [2], under 1 µM; in assay [3], 0.5 to 1 µM; in assay [4], under 0.5 µM.
The matching figures for `C#Cc1cc(=O)n(C[C@@H]2CCC(=O)N2)c2nc(Nc3ccc(N4CCN(C)CC4)cc3)ncc12` [Example 71, (S)-5-Ethynyl-2-((4-(4-methylpiperazin-1-yl)phenyl)amino)-8-((5-oxopyrrolidin-2-yl)methyl)pyrido[2,3-d]pyrimidin-7(8H)-one]: over 3 µM, over 10 µM, over 3 µM and over 3 µM.

The term IC50 denotes the concentration at which inhibition is half-maximal.
